The source of these data is publication PMC6483092 (ACS infectious diseases, 2019).

By IC50 is commonly meant the concentration that gives 50% inhibition.

One assay concerns HIV-1. The following applies: as described in the literature; cited from earlier work.
A further assay concerns HIV-1IIIB (wild-type). Particulars: HIV-1IIIB strain (wild-type virus).

Take “WMEWDREINNYTSL-IHSLIEESQNQQEKNEQELL [C34]”: the IC50 with HIV-1 is 1.4 nM.
With `CC[C@H](C)[C@H](NC(=O)[C@H](CC(C)C)NC(=O)[C@H](CO)NC(=O)[C@H](Cc1c[nH]cn1)NC(=O)[C@@H](NC(=O)[C@H](CC(C)C)NC(=O)[C@H](CO)NC(=O)[C@@H](NC(=O)[C@H](Cc1ccc(O)cc1)NC(=O)[C@H](CC(N)=O)NC(=O)[C@H](CC(N)=O)NC(=O)[C@@H](NC(=O)[C@H](CCC(=O)O)NC(=O)[C@H](CCCNC(=N)N)NC(=O)[C@H](CC(=O)O)NC(=O)[C@H](Cc1c[nH]c2ccccc12)NC(=O)[C@H](CCC(=O)O)NC(=O)[C@H](CCSC)NC(=O)[C@H](Cc1c[nH]c2ccccc12)NC(C)=O)[C@@H](C)CC)[C@@H](C)O)[C@@H](C)CC)C(=O)N[C@@H](CCC(=O)O)C(=O)N[C@@H](CCC(=O)O)C(=O)N[C@@H](CO)C(=O)N[C@@H](CCC(N)=O)C(=O)N[C@@H](CC(N)=O)C(=O)N[C@@H](CCC(N)=O)C(=O)N[C@@H](CCC(N)=O)C(=O)N[C@@H](CCC(=O)O)C(=O)N[C@@H](CCCCN)C(=O)N[C@@H](CC(N)=O)C(=O)N[C@@H](CCC(=O)O)C(=O)N[C@@H](CCC(N)=O)C(=O)N[C@@H](CCC(=O)O)C(=O)N[C@@H](CC(C)C)C(=O)N[C@@H](CC(C)C)C(=O)NCC(=O)N[C@@H](CO)C(=O)NCC(=O)N[C@@H](CSCC(=O)O[C@H]1CC[C@@]2(C)C(=CC[C@H]3[C@@H]4CC[C@H]([C@H](C)CCCC(C)(C)O)[C@@]4(C)CC[C@@H]32)C1)C(N)=O` [C34-HC], in the assay on HIV-1IIIB (wild-type), the “IC50 times lower than enfuvirtide” value is recorded as 25 times and the “IC90 times lower than enfuvirtide” value came out at 40 times.
